# Measured values published in ChEMBL document CHEMBL1149962, “Structural and stereochemical requirements of time-dependent inactivators of the interleukin-1 converting enzyme” (Bioorg Med Chem Lett, 1995).
# Target: T1, Caspase-1 (Homo sapiens, UniProt P29466)
# T1 sequence (P29466 whole entry): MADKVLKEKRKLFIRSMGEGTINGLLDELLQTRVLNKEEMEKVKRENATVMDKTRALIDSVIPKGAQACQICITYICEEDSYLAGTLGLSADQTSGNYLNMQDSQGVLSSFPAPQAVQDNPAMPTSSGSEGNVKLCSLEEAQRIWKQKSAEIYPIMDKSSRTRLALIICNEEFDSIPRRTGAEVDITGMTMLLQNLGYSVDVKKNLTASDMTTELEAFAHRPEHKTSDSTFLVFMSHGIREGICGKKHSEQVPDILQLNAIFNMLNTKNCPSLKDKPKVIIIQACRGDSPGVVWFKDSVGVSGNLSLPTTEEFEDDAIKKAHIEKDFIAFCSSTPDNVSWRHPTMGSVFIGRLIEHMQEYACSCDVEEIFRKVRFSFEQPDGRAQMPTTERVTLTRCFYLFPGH
# Test: Binding affinity against IL-1 beta converting enzyme
row,Ki [nM],SMILES
1,15,CC(C)[C@H](NC(=O)OCc1ccccc1)C(=O)N[C@@H](C)C(=O)N[C@H](C=O)CC(=O)O
2,15,CC(C)[C@H](NC(=O)OCc1ccccc1)C(=O)N[C@@H](C)C(=O)N[C@@H](C=O)CC(=O)O

# Target: T2, Caspase-1 (Homo sapiens) (UniProt P29466)
# T2 sequence (whole entry): T1 sequence (P29466 whole entry)
# Test: Inhibition of IL-1 beta converting enzyme
row,SMILES,k obs / 1 [M⁻¹ s⁻¹]
1,COC(=O)N[C@H](C(=O)N[C@@H](CC(=O)O)C(=O)COC(=O)c1c(Cl)cccc1Cl)C(C)C,4900
2,COC(=O)N[C@@H](C)C(=O)N[C@@H](CC(=O)O)C(=O)COC(=O)c1c(Cl)cccc1Cl,7000
3,C[C@H](NC(=O)[C@@H](C)NC(=O)OCc1ccccc1)C(=O)N[C@@H](CC(=O)O)C(=O)COC(=O)c1c(Cl)cccc1Cl,10000
4,COC(=O)N[C@@H](Cc1cccs1)C(=O)N[C@@H](CC(=O)O)C(=O)COC(=O)c1c(Cl)cccc1Cl,2500
5,O=C(O)C[C@H](NC(=O)OCc1ccccc1)C(=O)CSc1c(Cl)cccc1Cl,< 1000
6,COC(=O)NCC(=O)N[C@@H](CC(=O)O)C(=O)COC(=O)c1c(Cl)cccc1Cl,< 1000
7,COC(=O)N[C@@H](Cc1c[nH]cn1)C(=O)N[C@@H](CC(=O)O)C(=O)COC(=O)c1c(Cl)cccc1Cl,2200
8,C[C@H](NC(=O)[C@H](Cc1ccccc1)NC(=O)OCc1ccccc1)C(=O)N[C@@H](CC(=O)O)C(=O)COC(=O)c1c(Cl)cccc1Cl,233000
9,C[C@H](NC(=O)OCc1ccccc1)C(=O)N[C@@H](C)C(=O)N[C@@H](CC(=O)O)C(=O)COC(=O)c1c(Cl)cccc1Cl,116000

# The next lines start with the values.
row,k obs / 1 [M⁻¹ s⁻¹],SMILES
1,41000,CC(C)[C@H](NC(=O)OCc1ccccc1)C(=O)N[C@@H](CC(=O)O)C(=O)COC(=O)c1c(Cl)cccc1Cl
2,< 1000,O=C(O)C[C@@H](CCOC(=O)c1c(Cl)cccc1Cl)NC(=O)OCc1ccccc1
3,7400,O=C(O)C[C@H](NC(=O)OCc1ccccc1)C(=O)COC(=O)c1c(Cl)cccc1Cl
4,< 1000,O=C(O)C[C@@H](CC(=O)COC(=O)c1c(Cl)cccc1Cl)NC(=O)OCc1ccccc1
5,< 1000,C[C@H](C(=O)O)[C@H](NC(=O)OCc1ccccc1)C(=O)COC(=O)c1c(Cl)cccc1Cl
6,< 1000,O=C(O)C[C@H](OC(=O)OCc1ccccc1)C(=O)COC(=O)c1c(Cl)cccc1Cl
7,< 1000,CN(C(=O)OCc1ccccc1)[C@@H](CC(=O)O)C(=O)COC(=O)c1c(Cl)cccc1Cl
8,< 1000,C[C@@H](C(=O)O)[C@H](NC(=O)OCc1ccccc1)C(=O)COC(=O)c1c(Cl)cccc1Cl
9,< 1000,O=C(O)CCC[C@H](NC(=O)OCc1ccccc1)C(=O)COC(=O)c1c(Cl)cccc1Cl
10,< 1000,O=C(O)C[C@@H](C(=O)COC(=O)c1c(Cl)cccc1Cl)C(=O)NCCc1ccccc1
11,< 1000,O=C(O)C[C@H](NC(=O)OCc1ccccc1)C(=O)COc1c(Cl)cccc1Cl
12,< 1000,C[C@@H](NC(=O)OCc1ccccc1)C(=O)N[C@@H](CC(=O)O)C(=O)COC(=O)c1c(Cl)cccc1Cl
13,< 1000,O=C(N[C@@H](Cc1nnn[nH]1)C(=O)COC(=O)c1c(Cl)cccc1Cl)OCc1ccccc1
14,< 1000,O=C(O)C[C@H](NC(=O)OCc1ccccc1)C(O)COC(=O)c1c(Cl)cccc1Cl (stereo partly specified)

# Target: T2, Caspase-1 (Homo sapiens)
# Test: k obs/[I] against Interleukin-1-beta Converting enzyme (ICE) was determined.
row,k obs / 1 [M⁻¹ s⁻¹],SMILES
1,< 1000,O=C(O)CC[C@H](NC(=O)OCc1ccccc1)C(=O)COC(=O)c1c(Cl)cccc1Cl
